Data on twelve molecules can be found in patent publication US6184231A, “3-substituted-4-arylquinolin-2-one derivatives as potassium channel modulators” (priority 1999, dated 2001).

The subject of one assay is intracavernous pressure (ICP/BP) response. Nature of the assay: in vivo model on erectile function, cavernous nerve stimulation. As to conditions: 0.1-1.0 mg/kg i.v., anesthetized rats. More on the design: species or system rat. The text has this:
The in vivo model on erectile function is described fully in the scientific literature [Rehman, J., Chenven, E., Brink, P. Peterson, B., Wolcott, B., Wen, Y. P., Melman, A., Christ, G.: Diminished neurogenic but not pharmacological erections in the 2- to 3-month experimentally diabetic F-344 rat. Am. J. Physiol. 272: H1960-H1971, (1997)]. Briefly, rats (250-600 g) were anesthetized using sodium pentobarbital, the abdomen opened and the cavernous nerve identified. A pressure catheter was placed in the right corpus cavernosum (crus) to measure intracavernous pressure (ICP). A second catheter was introduced into the carotid artery to measure blood pressure. Test compound (0.1, 0.3 and 1 mg/kg iV.) or vehicle (PEG 400) was given via a catheter placed into the jugular vein.
Control intracavernous pressure responses were elicited by electrically stimulating the cavernous nerve via bipolar stimulating electrodes (20 Hz, 0.22 ms pulse width). Stimulus amplitude (0.2-20 mA) was adjusted to produce a submaximal intracavernous pressure response (typically 0.2 or 0.5 mA). A series of control intracavernous pressure responses were then obtained using a constant stimulus amplitude. Test compound or vehicle was then administered (200 μl i.v bolus) and the cavernous nerve was restimulated to evoke a cavernous pressure response at various times post-drug administration. […]
Regarding `O=c1[nH]c2ccc(C(F)(F)F)cc2c(-c2cc(Cl)ccc2O)c1CCO` [Example 20, 4-(5-Chloro-2-hydroxyphenyl)-3-(2-hydroxyethyl)-6-(trifluoromethyl)-2(1H)-quinolinone], the “ICP/BP ratio elicited by sub-maximal stimulation of the cavernous nerve” value was “significant increase”.

Another assay concerns cloned mammalian (mSlo or hSlo) BK channels. Nature of the assay: BK-mediated outward current, two-electrode voltage clamp in Xenopus oocytes. Type of assay: cell-based. As to conditions: at 20 μM; percent increase over BK current in controls; IBTX-sensitive current; at least 5 oocytes. How it is done: The ability of compounds described in the present invention to open BK channels and increase whole-cell outward (K^+) BK-mediated currents was assessed under voltage-clamp conditions by determining their ability to increase cloned mammalian (mSlo or hSlo) BK --mediated outward current heterologously expressed in Xenopus oocytes [Butler, A., et al., Science, 261: 221-224 (1993); and Dworetzky, S. I., et al., Mol. Brain Res., 27: 189-193 (1994)]. The two BK constructs employed represent nearly structurally identical homologous proteins, and have proven to be pharmacologically identical in our tests. To isolate BK current from native (background, non-BK) current, the specific and potent BK channel-blocking toxin iberiotoxin (IBTX) [Galvez, A., et al., J. Biol. Chem., 265: 11083-11090 (1990)] was employed at a supramaximal concentration (50 nM). The relative contribution of BK channels current to total outward current was determined by subtraction of the current remaining in the presence of IBTX (non-BK current) from the current profiles obtained in all other experimental conditions (control, drug, and wash). […] All compounds were tested in at least 5 oocytes and are reported at the single concentration of 20 μM; the effect of the selected compounds of Formula I on BK current was expressed as the percent of control IBTX-sensitive current and is listed in Table I. Recordings were accomplished using standard two-electrode voltage clamp techniques [Stuhmer, W., et al., Methods in Enzymology, Vol. 207: 319-339 (1992)]; voltage-clamp protocols consisted of 500-750 ms duration step depolarizations from a holding potential of -60 mV to +140 mV in 20 mV steps. The experimental media (modified Barth's solution) consisted of (in mM): NaCl (88), NaHCO3 (2.4), KCl (1.0), HEPES (10), MgSO4 (0.82), Ca(NO3)2 (0.33), CaCl2 (0.41); pH 7.5.
(Two-electrode voltage clamp is typically applied to oocytes expressing channels or transporters.)
Regarding `COc1ccc(Cl)cc1-c1c(CCO)c(=O)[nH]c2ccc(C(F)(F)F)cc12` [Example 21, 4-(5-Chloro-2-methoxyphenyl)-3-(2-hydroxyethyl)-6-trifluoromethyl-2(1H)-quinolinone], the “BK Current” value is “++ (++ = >200%)”.
The same measure, in the same setting: the entry for `O=c1[nH]c2ccc(C(F)(F)F)cc2c(-c2cc(Cl)ccc2O)c1CO` [Example 9, 4-(5-Chloro-2-hydroxyphenyl)-3-(hydroxymethyl)-6-(trifluoromethyl)-2(1H)-quinolinone] is “++ (++ = >200%)”; for `Cc1c(-c2cc(Cl)ccc2O)c2cc(C(F)(F)F)ccc2[nH]c1=O` [Example 34, 4-(5-Chloro-2-hydroxyphenyl)-3-methyl-6-(trifluoromethyl)-2(1H)-quinolinone] it is “++ (++ = >200%)”.
Consider `COc1ccc(Cl)cc1-c1c(CCCO)c(=O)[nH]c2ccc(C(F)(F)F)cc12` [Example 8, 4-(5-Chloro-2-methoxyphenyl)-3-(3-hydroxypropyl)-6-(trifluoromethyl)-2(1H)-quinolinone], for which the “BK Current” value is given as “++ (++ = >200%)”.
The same measure, in the same setting: the entry for `O=c1[nH]c2ccc(C(F)(F)F)cc2c(-c2cc(Cl)ccc2O)c1/C=C(\F)CO` [Example 17, (Z)-4-(5-Chloro-2-hydroxyphenyl)-3-(2-fluoro-3-hydroxy-1-propenyl)-6-(trifluoromethyl)-2(1H)-quinolinone] is “+ (+ = 100-200%)”; for `O=c1[nH]c2ccc(C(F)(F)F)cc2c(-c2cc(Cl)ccc2O)c1Cc1ccc(O)cc1` [Example 30, 4-(5-Chloro-2-hydroxyphenyl)-3-[(4-hydroxyphenyl)methyl]-6-(trifluoromethyl)-2(1H)-quinolinone] it is “++ (++ = >200%)”; for `COc1ccc(Cl)cc1-c1c(CO)c(=O)[nH]c2cc(C(F)(F)F)ccc12` [Example 3, 4-(5-Chloro-2-methoxyphenyl)-3-(hydroxymethyl)-7-(trifluoromethyl)-2(1H)-quinolinone] it is “+ (+ = 100-200%)”.
Still for that read-out and setting: the entry for `O=c1[nH]c2ccc(C(F)(F)F)cc2c(-c2cc(Cl)ccc2O)c1CCO` [Example 20, 4-(5-Chloro-2-hydroxyphenyl)-3-(2-hydroxyethyl)-6-(trifluoromethyl)-2(1H)-quinolinone] is “++ (++ = >200%)”.
Take `COc1ccc(Cl)cc1-c1c(C=NO)c(=O)[nH]c2ccc(C(F)(F)F)cc12` [Example 39, 4-(5-Chloro-2-methoxyphenyl)-1,2-dihydro-2-oxo-6-(trifluoromethyl)-3-quinolinecarboxaldehyde oxime]: the “BK Current” value is listed as “++ (++ = >200%)”.
Take `COc1ccc(Cl)cc1-c1c(C=O)c(=O)[nH]c2ccc(C(F)(F)F)cc12` [Example 4, 4-(5-Chloro-2-methoxyphenyl)-1,2-dihydro-2-oxo-6-(trifluoromethyl)-3-quinolinecarboxaldehyde]: the “BK Current” value is recorded as “+ (+ = 100-200%)”.
`Nc1ccc(-c2c(-c3cc(Cl)ccc3O)c3cc(C(F)(F)F)ccc3[nH]c2=O)cc1` [Example 32, 4-(5-Chloro-2-hydroxyphenyl)-3-(4-aminophenyl)-6-(trifluoromethyl)-2(1H)-quinolinone]: the “BK Current” value is “++ (++ = >200%)”.
As for `COc1ccc(Cl)cc1-c1c(/C=C(/F)CO)c(=O)[nH]c2ccc(C(F)(F)F)cc12` [Example 18, (E)-4-(5-Chloro-2-methoxyphenyl)-3-(2-fluoro-3-hydroxy-1-propenyl)-6-(trifluoromethyl)-2(1H)-quinolinone], the “BK Current” value was “+ (+ = 100-200%)”.

For another assay, the system named is cortical infarct volume. Nature of the assay: permanent focal ischemia, middle cerebral artery occlusion (MCAO) model. Type of assay: in vivo, spontaneously hypertensive rat. As to conditions: 0.003 mg/kg i.v. single bolus 2 hours after MCAO; infarct measured 24 hours after MCAO; vs vehicle-treated control. The text has this: To determine the ability of these compounds to reduce cell loss resulting from neuronal ischemia, a standard rodent model of permanent focal ischemia, involving occlusion of the middle cerebral artery in the spontaneously hypertensive rat (middle cerebral artery occlusion (MCAO) model) was employed [Tamura, A., et al., Journal of Cerebral Blood Flow and Metabolism, Volume 1, 53-60, (1981)].
Selected compounds have been evaluated in the focal stroke model involving permanent MCAO in the spontaneously hypertensive rat. This procedure results in a reliably large neocortical infarct volume that is measured by means of vital dye exclusion in serial slices through the brain 24 hours after MCAO. In the present test, compounds were administered using an intravenous route of administration at 2 hours after occlusion.
Consider `COc1ccc(Cl)cc1-c1c(CCO)c(=O)[nH]c2ccc(C(F)(F)F)cc12` [Example 21, 4-(5-Chloro-2-methoxyphenyl)-3-(2-hydroxyethyl)-6-trifluoromethyl-2(1H)-quinolinone], for which the “reduction of cortical infarct volume” value is on record as “about 25%”.
